Experiments:
Experiment in all cases: relative viability (nuclei count vs DMSO), 5 days (fraction); higher = more cells survive
AZ505 + Bortezomib = compound: C1CCC(CC1)N(CCNCCC2=C3C(=C(C=C2)O)NC(=O)CO3)C(=O)CCNCCC4=CC(=C(C=C4)Cl)Cl [AZ505] + CC(C)C[C@H](NC(=O)[C@H](Cc1ccccc1)NC(=O)c1cnccn1)B(O)O [Bortezomib] (partner 0.002 µM)
In short: (§1)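 Relative viability is defined as nuclei in treated wells over nuclei in vehicle wells. Duplicate plates were run and medians reported. Lung cancer cell lines in 1536-well plates were dosed by pin tool one day after seeding, with one drug or with a fixed anchor-drug dose plus five library-drug doses (not always all listed) in √10 steps, and nuclei were counted after 5 days.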

AZ505 + Linsitinib = compound: C1CCC(CC1)N(CCNCCC2=C3C(=C(C=C2)O)NC(=O)CO3)C(=O)CCNCCC4=CC(=C(C=C4)Cl)Cl [AZ505] + C[C@]1(O)C[C@@H](c2nc(-c3ccc4ccc(-c5ccccc5)nc4c3)c3c(N)nccn32)C1 [Linsitinib] (partner 1 µM)
In short: as §1

Dactolisib + Palbociclib = compound: Cn1c(=O)n(-c2ccc(C(C)(C)C#N)cc2)c2c3cc(-c4cnc5ccccc5c4)ccc3ncc21 [Dactolisib] + CC(=O)c1c(C)c2cnc(Nc3ccc(N4CCNCC4)cn3)nc2n(C2CCCC2)c1=O [Palbociclib] (partner 0.5 µM)
In short: as §1

Dactolisib + Dasatinib = compound: Cn1c(=O)n(-c2ccc(C(C)(C)C#N)cc2)c2c3cc(-c4cnc5ccccc5c4)ccc3ncc21 [Dactolisib] + Cc1nc(Nc2ncc(C(=O)Nc3c(C)cccc3Cl)s2)cc(N2CCN(CCO)CC2)n1 [Dasatinib] (partner 0.075 µM)
In short: as §1

| Cell Line | relative viability (AZ505 + Bortezomib; first compound 0.08 µM) | relative viability (AZ505 + Bortezomib; first compound 0.253 µM) | relative viability (AZ505 + Bortezomib; first compound 0.8 µM) | relative viability (AZ505 + Bortezomib; first compound 8 µM) | relative viability (AZ505 + Linsitinib; first compound 0.08 µM) | relative viability (AZ505 + Linsitinib; first compound 0.253 µM) | relative viability (AZ505 + Linsitinib; first compound 0.8 µM) | relative viability (AZ505 + Linsitinib; first compound 2.53 µM) | relative viability (AZ505 + Linsitinib; first compound 8 µM) | relative viability (Dactolisib + Palbociclib; first compound 0.002 µM) | relative viability (Dactolisib + Palbociclib; first compound 0.006325 µM) | relative viability (Dactolisib + Palbociclib; first compound 0.02 µM) | relative viability (Dactolisib + Palbociclib; first compound 0.06325 µM) | relative viability (Dactolisib + Palbociclib; first compound 0.2 µM) | relative viability (Dactolisib + Dasatinib; first compound 0.002 µM) | relative viability (Dactolisib + Dasatinib; first compound 0.006325 µM) | relative viability (Dactolisib + Dasatinib; first compound 0.02 µM) | relative viability (Dactolisib + Dasatinib; first compound 0.06325 µM) | relative viability (Dactolisib + Dasatinib; first compound 0.2 µM) | relative viability (AZ505 + Bortezomib; first compound 2.53 µM) |
| --- | --- | --- | --- | --- | --- | --- | --- | --- | --- | --- | --- | --- | --- | --- | --- | --- | --- | --- | --- | --- |
| LCLC-97TM1 | 0.579 | 0.461 | 0.461 | 1.08 | 0.257 | 0.2 | 0.16 | 0.201 | 0.199 | 0.217 | 0.252 | 0.194 | 0.161 | 0.0966 | 0.811 | 0.85 | 0.858 | 0.853 | 0.741 | – |
| LCLC-103H | 0.894 | 1.05 | 1.01 | 1.06 | 1.01 | 0.807 | 1.03 | 1.06 | 1.07 | 0.483 | 0.494 | 0.45 | 0.414 | 0.373 | 0.529 | 0.422 | 0.45 | 0.429 | 0.307 | 1.02 |
| LOU-NH91 | 0.46 | 0.508 | 0.536 | 0.453 | 0.838 | 0.92 | 0.857 | 0.915 | 0.962 | 0.532 | 0.548 | 0.549 | 0.524 | 0.52 | 0.533 | 0.591 | 0.504 | 0.438 | 0.351 | 0.527 |
| LU99A | 1.02 | 1.08 | 1.05 | 1.18 | 0.524 | 0.647 | 0.507 | 0.573 | 0.565 | 0.419 | 0.37 | 0.297 | 0.216 | 0.181 | 0.621 | 0.449 | 0.403 | 0.225 | 0.205 | 1.18 |
| LXF-289 | 0.875 | – | 1.02 | 1.02 | 0.884 | – | 0.973 | 0.943 | 0.96 | 0.622 | 0.591 | 0.585 | 0.522 | 0.381 | 0.22 | 0.21 | 0.235 | 0.221 | 0.121 | 0.975 |
| NCI-H23 | 0.674 | – | 1.21 | 1.07 | 0.561 | – | 0.651 | 0.554 | 0.545 | 0.464 | 0.383 | 0.37 | 0.189 | 0.191 | 0.852 | 0.682 | 0.679 | 0.325 | 0.302 | 0.956 |
| NCI-H322M | 1.29 | 1.15 | 1.39 | 1.34 | 0.895 | 0.863 | 0.983 | 0.981 | 0.95 | 0.487 | 0.476 | 0.415 | 0.387 | 0.415 | 0.267 | 0.256 | 0.243 | 0.234 | 0.235 | 1.22 |
| NCI-H441 | 0.751 | 0.636 | 0.598 | 0.621 | 0.513 | 0.51 | 0.662 | 0.543 | 0.509 | 0.27 | 0.206 | 0.194 | 0.176 | 0.133 | 0.729 | 0.477 | 0.527 | 0.357 | 0.205 | 0.432 |
| NCI-H460 | 0.945 | 1.24 | 1.04 | 1.11 | 0.654 | 0.899 | 0.674 | 0.716 | 0.817 | 0.0965 | 0.111 | 0.13 | 0.0706 | 0.0375 | 0.568 | 0.503 | 0.448 | 0.185 | 0.112 | 1.09 |
| NCI-H520 | 0.588 | 0.504 | 0.496 | 0.762 | 0.911 | 1.1 | 0.85 | 1.04 | 0.955 | 0.206 | 0.178 | 0.163 | 0.153 | 0.117 | 0.182 | 0.177 | 0.149 | 0.122 | 0.17 | 0.706 |
| NCI-H647 | 1.07 | 1.13 | 1 | 1.01 | 1.08 | 1.36 | 1.04 | 1.29 | 1.22 | 0.398 | 0.294 | 0.196 | 0.0842 | 0.0654 | 0.164 | 0.191 | 0.143 | 0.0579 | 0.068 | 1.19 |
| NCI-H650 | 0.607 | 0.793 | 0.818 | 0.775 | 0.847 | 0.739 | 0.897 | 1.15 | 0.921 | 0.387 | 0.33 | 0.334 | 0.279 | 0.204 | 0.539 | 0.432 | 0.449 | 0.314 | 0.305 | 1.02 |
| NCI-H661 | 0.798 | 1.01 | 0.716 | 0.732 | 0.583 | 0.567 | 0.544 | 0.491 | 0.646 | 0.415 | 0.379 | 0.368 | 0.342 | 0.332 | 0.562 | 0.744 | 0.483 | 0.296 | 0.286 | 0.787 |
| NCI-H727 | 0.728 | 0.708 | 0.767 | 0.934 | 0.388 | 0.24 | 0.272 | 0.427 | 0.275 | – | 0.693 | 0.658 | 0.581 | 0.513 | 0.384 | 0.445 | 0.461 | 0.3 | 0.257 | 0.747 |
| NCI-H838 | 0.805 | 0.609 | 0.761 | 0.884 | 0.965 | 1.03 | 1.02 | 0.997 | 0.928 | 0.2 | 0.186 | 0.151 | 0.142 | 0.117 | 0.261 | 0.259 | 0.247 | 0.248 | 0.224 | 0.564 |
| NCI-H1355 | 1.13 | 1.19 | 1.16 | 1.16 | 0.787 | 0.783 | 0.81 | 0.684 | 0.826 | 0.406 | 0.368 | 0.352 | 0.255 | 0.174 | 0.806 | 0.743 | 0.689 | 0.409 | 0.218 | 1.25 |

From the supplement of paper PMC10307832
